Test system: 843126-344-R-J1-PDC complex spheroid viability
Assay: Anticancer human tumor 843126-344-R-J1-PDC patient-derived melanoma cell line growth inhibition [POLQ]
Details: for IC50: curve of first compound; for viability, T/C: stronger effect = lower value
Experimental: Multicellular complex tumor spheroid response to Polymerase (POL) inhibitors (novobiocin, ART-558, RP6685) in combination with a variety of drugs and investigational agents in selected tumor cell lines
The POL inhibitors (novobiocin, ART-558, and RP6685) were evaluated both individually and in combination with standard of care and investigational anticancer small molecules within a complex spheroid model of solid tumors. . Complex spheroids include a stromal component modeled by human endothelial cells (HUVEC) and fibroblasts modeled by human mesenchymal stem cells (MSCs). The concentration ranges selected for each drug and investigational agent were based upon clinically achievable concentrations if the clinical Cmax of the agent was known.
Compounds. The drugs and investigational agents: novobiocin (NSC847541), ART-558 (NSC835418), RP-6685 (NSC848927), peposertib (NSC802822), ceralasertib (NSC780249), elimusertib (NSC800525), camonsertib (NSC841442), AZD-1390 (NSC803789), olaparib (NSC753686), talazoparib (NSC767125), rucaparib (NSC756644), sotorasib (NSC818433), MRTX-1133 (NSC836407), SN-38 (NSC673596), topotecan (NSC609699), epotoside (NSC141540), doxorubicin (NSC123127), gemcitabine (NSC613327), 5-fluorouracil (NSC19893), paclitaxel (NSC125973), vemurafenib (NSC761431), MSA-2 (NSC828583), SN-011 (NSC837082), adavosertib (NSC754352), prexasertib (NSC758257), carboplatin (NSC241240) and oxaliplatin (NSC266046), were obtained from the National Cancer Institute (NCI) Developmental Therapeutics Program Chemical Repository (21). The FDA-approved anticancer drug set is available from the Developmental Therapeutics Program at https://dtp.cancer.gov/organization/dscb/obtaining/. […] The stock solutions were prepared in dimethyl sulfoxide (DMSO, Sigma-Aldrich, St. Louis, MO, cat. D2650), except for the platinum compounds which were prepared in saline (Quality Biological, Gaithersburg, MD, cat. 114-055-101), at 800-fold the tested concentration and stored at -70 degrees C prior to their use. All drugs and investigational agents were tested over a range starting from a high concentration at or near the clinical Cmax and decreasing in half-log increments. If the clinical Cmax for an agent had not been determined, the highest concentration tested was 10 microM, except for SN-38, which was tested at a high concentration of 1 microM.
Cell Culture. All cells were maintained in an incubator at 37 degrees C and 5% CO2 with 95% humidity. The PDC lines were cultured according to standard operating procedures established by the NCI PDMR (https://pdmr.cancer.gov). Table 3 of the manuscript, lists the cell lines along with the number of the three cell types plated to form the mct-spheroids and media for tumor cell growth. After thawing, all PDC lines, except 997537-175-T-J1-PDC and 415267-285-R-J2-PDC, were cultured in Matrigel-coated flasks prepared with a working solution of 1X Ham's F-12 nutrient mix, without supplementation (Thermo Fisher Scientific, cat. 11765054), 100 U/mL penicillin-streptomycin (Thermo Fisher Scientific, cat. 15140122), and 2.5% Matrigel (Corning Inc., Corning, NY, cat. 354248) for the first three passages. The two PDC lines 997537-175-T-J1-PDC and 415267-285-R-J2-PDC were cultured on uncoated flasks. The 857933-349-R-J2-PDC line was cultured in 6C/Colon 1B media containing advanced DMEM/F-12 (Thermo Fisher Scientific, cat. 12634028), 10 mM HEPES (Thermo Fisher Scientific, cat. 15630080), 1X GlutaMAX supplement (Thermo Fisher Scientific, cat. 35050061), 0.1 mg/mL primocin (InvivoGen, San Diego, CA, cat. ant-pm-2), 10% defined fetal bovine serum, heat inactivated (HyClone Laboratories Inc., Logan, UT, cat. SH30070.03HI), 50% L-WRN conditioned media (ATCC, cat. CRL-3276), 1.25 mM N-Acetyl-L-cysteine (Sigma-Aldrich, cat. A9165), 10 mM nicotinamide (Sigma-Aldrich, cat. N0636), 1X B-27 supplement (Thermo Fisher Scientific, cat. 17504044), 1X N-2 supplement (Thermo Fisher Scientific, cat. […]

[1] = second compound 0.0316 µM, first compound 0.0316 µM
[2] = second compound 0.0316 µM, first compound 0.1 µM
[3] = second compound 0.1 µM, first compound 0.0316 µM
[4] = second compound 0.1 µM, first compound 0.1 µM
[5] = second compound 0.316 µM, first compound 0.0316 µM
[6] = second compound 0.316 µM, first compound 0.1 µM
[7] = second compound 1 µM, first compound 0.0316 µM
[8] = second compound 1 µM, first compound 0.1 µM
[9] = second compound 3.16 µM, first compound 0.0316 µM
[10] = second compound 3.16 µM, first compound 0.1 µM
[11] = second compound 10 µM, first compound 0.0316 µM
[12] = second compound 10 µM, first compound 0.1 µM
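Throughout, for viability, T/C: spheroids exposed to drugs for seven days before readout.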

For Cn1ncnc1[C@H]1c2n[nH]c(=O)c3cc(F)cc(c23)N[C@@H]1c1ccc(F)cc1 + COC1C(OC(N)=O)C(O)C(Oc2ccc3c(O)c(NC(=O)c4ccc(O)c(CC=C(C)C)c4)c(=O)oc3c2C)OC1(C)C, the IC50 (second compound 0.0316 µM) was > 0.1 µM, the IC50 (second compound 0.1 µM) was > 0.1 µM and the IC50 (second compound 0.316 µM) was > 0.1 µM. For the same compound, the IC50 (second compound 1 µM) was > 0.1 µM, the IC50 (second compound 3.16 µM) was > 0.1 µM and the IC50 (second compound 10 µM) was > 0.1 µM. It also gave a viability, T/C (second compound 0.0316 µM, first compound 0.000316 µM) of 83.3%, a viability, T/C (second compound 0.0316 µM, first compound 0.001 µM) of 87.8% and a viability, T/C (second compound 0.0316 µM, first compound 0.00316 µM) of 108%. The viability, T/C (second compound 0.0316 µM, first compound 0.01 µM) was 106%, the viability, T/C [1] was 97.8% and the viability, T/C [2] was 76.5%. It also gave a viability, T/C (second compound 0.1 µM, first compound 0.000316 µM) of 96.7%, a viability, T/C (second compound 0.1 µM, first compound 0.001 µM) of 103% and a viability, T/C (second compound 0.1 µM, first compound 0.00316 µM) of 93.5%. The viability, T/C (second compound 0.1 µM, first compound 0.01 µM) was 91.8%, the viability, T/C [3] was 121% and the viability, T/C [4] was 87.2%. For the same compound, the viability, T/C (second compound 0.316 µM, first compound 0.000316 µM) was 90.1%, the viability, T/C (second compound 0.316 µM, first compound 0.001 µM) was 109% and the viability, T/C (second compound 0.316 µM, first compound 0.00316 µM) was 81.2%. For the same compound, the viability, T/C (second compound 0.316 µM, first compound 0.01 µM) was 102%, the viability, T/C [5] was 90.3% and the viability, T/C [6] was 94.2%. It also gave a viability, T/C (second compound 1 µM, first compound 0.000316 µM) of 89.7%, a viability, T/C (second compound 1 µM, first compound 0.001 µM) of 106% and a viability, T/C (second compound 1 µM, first compound 0.00316 µM) of 105%. The viability, T/C (second compound 1 µM, first compound 0.01 µM) was 84.3%, the viability, T/C [7] was 118% and the viability, T/C [8] was 76.1%. It also gave a viability, T/C (second compound 3.16 µM, first compound 0.000316 µM) of 85.1%, a viability, T/C (second compound 3.16 µM, first compound 0.001 µM) of 99.1% and a viability, T/C (second compound 3.16 µM, first compound 0.00316 µM) of 101%. For the same compound, the viability, T/C (second compound 3.16 µM, first compound 0.01 µM) was 89.9%, the viability, T/C [9] was 120% and the viability, T/C [10] was 94.1%. The viability, T/C (second compound 10 µM, first compound 0.000316 µM) was 83.9%, the viability, T/C (second compound 10 µM, first compound 0.001 µM) was 102% and the viability, T/C (second compound 10 µM, first compound 0.00316 µM) was 101%. It also gave a viability, T/C (second compound 10 µM, first compound 0.01 µM) of 86.9%, a viability, T/C [11] of 80.9% and a viability, T/C [12] of 81.7%.

For O=C(c1cc(Cc2n[nH]c(=O)c3ccccc23)ccc1F)N1CCN(C(=O)C2CC2)CC1 + COC1C(OC(N)=O)C(O)C(Oc2ccc3c(O)c(NC(=O)c4ccc(O)c(CC=C(C)C)c4)c(=O)oc3c2C)OC1(C)C, the IC50 (second compound 0.0316 µM) was > 10 µM, the IC50 (second compound 0.1 µM) was > 10 µM and the IC50 (second compound 0.316 µM) was > 10 µM. For the same compound, the IC50 (second compound 1 µM) was > 10 µM, the IC50 (second compound 3.16 µM) was > 10 µM and the IC50 (second compound 10 µM) was > 10 µM. The viability, T/C [1] was 81.4%, the viability, T/C [2] was 94.9% and the viability, T/C (second compound 0.0316 µM, first compound 0.316 µM) was 76.9%. The viability, T/C (second compound 0.0316 µM, first compound 1 µM) was 82.5%, the viability, T/C (second compound 0.0316 µM, first compound 3.16 µM) was 80.7% and the viability, T/C (second compound 0.0316 µM, first compound 10 µM) was 63.8%. The viability, T/C [3] was 76.2%, the viability, T/C [4] was 98.7% and the viability, T/C (second compound 0.1 µM, first compound 0.316 µM) was 90.2%. For the same compound, the viability, T/C (second compound 0.1 µM, first compound 1 µM) was 71.9%, the viability, T/C (second compound 0.1 µM, first compound 3.16 µM) was 80.7% and the viability, T/C (second compound 0.1 µM, first compound 10 µM) was 61.6%. For the same compound, the viability, T/C [5] was 91.8%, the viability, T/C [6] was 71.1% and the viability, T/C (second compound 0.316 µM, first compound 0.316 µM) was 97.9%. For the same compound, the viability, T/C (second compound 0.316 µM, first compound 1 µM) was 81.5%, the viability, T/C (second compound 0.316 µM, first compound 3.16 µM) was 80.7% and the viability, T/C (second compound 0.316 µM, first compound 10 µM) was 73.5%. For the same compound, the viability, T/C [7] was 83.3%, the viability, T/C [8] was 85% and the viability, T/C (second compound 1 µM, first compound 0.316 µM) was 92.8%. The viability, T/C (second compound 1 µM, first compound 1 µM) was 92.3%, the viability, T/C (second compound 1 µM, first compound 3.16 µM) was 100% and the viability, T/C (second compound 1 µM, first compound 10 µM) was 63.6%. The viability, T/C [9] was 71.1%, the viability, T/C [10] was 81.7% and the viability, T/C (second compound 3.16 µM, first compound 0.316 µM) was 106%. The viability, T/C (second compound 3.16 µM, first compound 1 µM) was 76.5%, the viability, T/C (second compound 3.16 µM, first compound 3.16 µM) was 83.5% and the viability, T/C (second compound 3.16 µM, first compound 10 µM) was 66.1%. The viability, T/C [11] was 91%, the viability, T/C [12] was 72% and the viability, T/C (second compound 10 µM, first compound 0.316 µM) was 96.1%. For the same compound, the viability, T/C (second compound 10 µM, first compound 1 µM) was 80.6%, the viability, T/C (second compound 10 µM, first compound 3.16 µM) was 80.6% and the viability, T/C (second compound 10 µM, first compound 10 µM) was 61%.

Reference: PubChem BioAssay AID1963837 (Molecular Pharmacology Branch, DTP, NCI, 2024)
